Test results published in patent publication US8314092B2, “Substituted [(5H-pyrrolo[2,1-c][1,4]benzodiazepin-11-yl)piperazin-1-yl]-2,2-dimethylpropanoic acid compounds as dual activity H1 inverse agonists/5-HT2A antagonists” (Eli Lilly and Company, priority 2011, dated 2012).
Structures can show the parent of a compound that is named as a salt.

What was measured:
Wistar rats = test: Sleep and behavioral monitoring in rats (EEG, EMG, motion); type: in vivo; conditions: rat; for Rebound Insomnia, Adj. Mean: NREM + REM sleep in 7th-9th hours post-treatment; for Rebound Insomnia, Adj. Mean / REM inhibition, Adj. Mean / Cumulative NREM sleep, Adj. Mean / Cumulative Total sleep, Adj. Mean / Locomotor Activity Intensity, Adj. Mean: difference from vehicle; for REM inhibition, Adj. Mean: REM sleep in first 12 hours post-treatment; for Cumulative NREM sleep, Adj. Mean / Cumulative Total sleep, Adj. Mean / Locomotor Activity Intensity, Adj. Mean / Average Sleep Bout, Adj. Mean / Longest Sleep Bout, Adj. Mean: first 6 hours post-treatment; for Average Sleep Bout, Adj. Mean / Longest Sleep Bout, Adj. Mean: n-fold increase over vehicle controls
Experimental: Sleep and behavioral monitoring in rats: Representative compounds of the present invention are tested in rats for their ability to increase the amount of sleep or decrease sleep interruption or both without undesired effects such as inhibition of REM sleep, waking motor impairment, and/or rebound insomnia. Test animals are continuously monitored by electro-encephalograms (EEG), electromyograms (EMG), and motion to measure cumulative nonREM sleep, cumulative total sleep, average sleep bout duration, longest sleep bout duration, rebound insomnia, REM sleep inhibition and locomotor activity intensity during wakefulness. Methods for such studies are known in the art (see for example methods described in Edgar D M, Seidel W F. Modafinil induces wakefulness without intensifying motor activity or subsequent rebound hypersomnolence in the rat. J Pharmacology & Experimental Therapeutics 1997; 283: 757-769; van Gelder R N, Edgar D M, Dement W C. Real-time automated sleep scoring: validation of a microcomputer-based system for mice. Sleep 1991, 14: 48-55; and Gross B A, Walsh C M, Turakhia A A, Booth V, Mashour G A, Poe G R. Open-source logic-based automated sleep scoring software using electrophysiological recordings in rats. J Neurosci Methods. 2009; 184(1):10-8.) Studies are conducted as follows: Animal preparation. Adult, male Wistar rats (approximately 270-300 g at time of surgery) are surgically fitted for chronic recording of EEG, EMG, and motion as follows: Rats are surgically prepared with a cranial implant consisting of four stainless steel screws for EEG recording (two frontal [3.9 mm anterior from bregma, and ±2.0 mm mediolaterally] and two occipital [6.4 mm posterior from bregma, ±5.5 mm mediolaterally]), and with two Teflon-coated stainless steel wires for EMG recording (positioned under the nuchal trapezoid muscles). All leads are soldered to a miniature connector (Microtech, Boothwyn, Pa.) prior to surgery. The implant assembly is affixed to the skull by the combination of the stainless steel EEG recording screws, cyanoacrylate applied between the implant connector and skull, and dental acrylic. Locomotor activity is monitored via a miniature transmitter (Minimitter PDT4000G, Philips Respironics, Bend, Oreg.) surgically placed into the abdomen. At least 3 weeks are allowed for recovery. Recording environment. Each rat is housed individually within a microisolator cage modified with an inserted polycarbonate filter-top riser to allow more vertical headroom. A flexible cable that minimally restricts movement is connected at one end to a commutator affixed to the cage top and at the other end to the animal's cranial implant. Each cage is located within separate, ventilated compartments of a stainless steel sleep-wake recording chamber. Food and water are available ad libitum and the ambient temperature is maintained at about 23±1° C. A 24-hr. light-dark cycle (LD 12:12) using fluorescent light is maintained throughout the study. Relative humidity averages approximately 50%. Animals are undisturbed for at least 30 hrs before and after each treatment. Study design and dosing. The vehicle (placebo, methylcellulose 15 centipoise 0.25% in water) or one of the test compound dose levels is administered orally at 1 mL/kg pseudo-randomly such that no rat receives the same treatment twice, and no rat receives more than two of the 8 treatments in any one study. Each rat is removed from its cage for about a minute to be weighed and treated. At least 6 days “washout” period precede and follow each treatment. Data collection. […]

5-HT7 = 5-HT7 (Homo sapiens, UniProt P34969); test: 5-HT7 binding
Description: Further, the compounds of the invention may be tested in binding assays and functional activity assays by well known methods for other physiologically important receptors such as, but not limited to, the hERG channel, other serotonin receptors (specifically 5-HT1A, 5-HT1B, 5-HT1D, 5-HT1E, 5-HT1F receptors, lack of agonist activity at 5-HT2B receptors, 5-HT2C, 5-HT4, 5-HTS, 5-HT6, and 5-HT7 receptors), muscarinic receptors, dopaminergic receptors (specifically D1, D2, and D3), GABAA receptors, adrenergic receptors and monoamine transporters. Certain exemplified compounds are tested at these receptors and are shown to lack significant activity.

[1] = PO, 6 hour period after treatment

Chain of 5-HT7 (P34969 whole entry, species assumed): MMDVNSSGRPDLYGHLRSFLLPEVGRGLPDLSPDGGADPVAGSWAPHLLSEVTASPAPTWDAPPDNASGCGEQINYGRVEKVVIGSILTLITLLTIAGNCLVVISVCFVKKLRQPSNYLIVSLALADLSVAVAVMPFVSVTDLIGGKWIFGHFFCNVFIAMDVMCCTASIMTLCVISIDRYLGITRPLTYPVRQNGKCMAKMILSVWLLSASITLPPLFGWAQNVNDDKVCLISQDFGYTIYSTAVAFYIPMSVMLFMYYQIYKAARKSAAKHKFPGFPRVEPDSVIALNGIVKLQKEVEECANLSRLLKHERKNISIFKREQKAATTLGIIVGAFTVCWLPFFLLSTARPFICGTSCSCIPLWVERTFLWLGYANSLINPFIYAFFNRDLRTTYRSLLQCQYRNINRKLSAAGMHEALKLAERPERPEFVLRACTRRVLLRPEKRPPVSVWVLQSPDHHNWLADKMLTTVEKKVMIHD

SMILES: Cc1cc2n(c1)Cc1cc(Cl)ccc1N=C2N1CCN(CC(C)(C)C(=O)O)CC1 [Example 13, 3-[4-(7-Chloro-2-methyl-5H-pyrrolo[2,1-c][1,4]benzodiazepin-11-yl)piperazin-1-yl]-2,2-dimethylpropanoic acid dihydrochloride]
- Rebound Insomnia, Adj. Mean (Wistar rats; 0.03 mg/kg PO): -0.7 min
- REM inhibition, Adj. Mean (Wistar rats; 0.03 mg/kg PO): 1.8 min
- Cumulative NREM sleep, Adj. Mean (Wistar rats; 0.03 mg/kg PO): 5.1 min
- Cumulative Total sleep, Adj. Mean (Wistar rats; 0.03 mg/kg PO): 7.3 min
- Locomotor Activity Intensity, Adj. Mean (Wistar rats; 0.03 mg/kg PO): −0.97 LMA counts per minute of EEG-defined wakefulness
- Average Sleep Bout, Adj. Mean (Wistar rats; 0.03 mg/kg PO): 1.1 n-fold
- Longest Sleep Bout, Adj. Mean (Wistar rats; 0.03 mg/kg PO): 1.3 n-fold
- Rebound Insomnia, Adj. Mean (Wistar rats; 0.10 mg/kg PO): -5.4 min
- REM inhibition, Adj. Mean (Wistar rats; 0.10 mg/kg PO): 1.0 min
- Cumulative NREM sleep, Adj. Mean (Wistar rats; 0.10 mg/kg PO): 5.9 min
- Cumulative Total sleep, Adj. Mean (Wistar rats; 0.10 mg/kg PO): 5.9 min
- Locomotor Activity Intensity, Adj. Mean (Wistar rats; 0.10 mg/kg PO): −0.35 LMA counts per minute of EEG-defined wakefulness
- Average Sleep Bout, Adj. Mean (Wistar rats; 0.10 mg/kg PO): 1.1 n-fold
- Longest Sleep Bout, Adj. Mean (Wistar rats; 0.10 mg/kg PO): 1.7 n-fold
- Rebound Insomnia, Adj. Mean (Wistar rats; 0.25 mg/kg PO): -1.9 min
- REM inhibition, Adj. Mean (Wistar rats; 0.25 mg/kg PO): 4.7 min
- Cumulative NREM sleep, Adj. Mean (Wistar rats; 0.25 mg/kg PO): 15.2 min
- Cumulative Total sleep, Adj. Mean (Wistar rats; 0.25 mg/kg PO): 17.7 min
- Locomotor Activity Intensity, Adj. Mean (Wistar rats; 0.25 mg/kg PO): −0.58 LMA counts per minute of EEG-defined wakefulness
- Average Sleep Bout, Adj. Mean (Wistar rats; 0.25 mg/kg PO): 1.2 n-fold
- Longest Sleep Bout, Adj. Mean (Wistar rats; 0.25 mg/kg PO): 1.7 n-fold
- Rebound Insomnia, Adj. Mean (Wistar rats; 0.50 mg/kg PO): -7.2 min
- REM inhibition, Adj. Mean (Wistar rats; 0.50 mg/kg PO): 5.8 min
- Cumulative NREM sleep, Adj. Mean (Wistar rats; 0.50 mg/kg PO): 22.2 min
- Cumulative Total sleep, Adj. Mean (Wistar rats; 0.50 mg/kg PO): 25.1 min
- Locomotor Activity Intensity, Adj. Mean (Wistar rats; 0.50 mg/kg PO): −0.14 LMA counts per minute of EEG-defined wakefulness
- Average Sleep Bout, Adj. Mean (Wistar rats; 0.50 mg/kg PO): 1.4 n-fold
- Longest Sleep Bout, Adj. Mean (Wistar rats; 0.50 mg/kg PO): 1.8 n-fold
- Rebound Insomnia, Adj. Mean (Wistar rats; 1 mg/kg PO): -9.7 min
- REM inhibition, Adj. Mean (Wistar rats; 1 mg/kg PO): 2.6 min
- Cumulative NREM sleep, Adj. Mean (Wistar rats; 1 mg/kg PO): 28.0 min
- Cumulative Total sleep, Adj. Mean (Wistar rats; 1 mg/kg PO): 30.6 min
- Locomotor Activity Intensity, Adj. Mean (Wistar rats; 1 mg/kg PO): −2.94 LMA counts per minute of EEG-defined wakefulness
- Average Sleep Bout, Adj. Mean (Wistar rats; 1 mg/kg PO): 1.6 n-fold
- Longest Sleep Bout, Adj. Mean (Wistar rats; 1 mg/kg PO): 2.5 n-fold
- REM sleep inhibition (in words) (Wistar rats; 3 mg/kg): without significant
- cumulative NREM sleep time (in words) (Wistar rats; 3 mg/kg): significantly increase
- cumulative total sleep time (in words) (Wistar rats; 3 mg/kg): significantly increase
- inhibition of locomotor intensity (LMI) (in words) (Wistar rats; 3 mg/kg): without significant
- rebound insomnia (in words) (Wistar rats; 3 mg/kg): without significant
- Rebound Insomnia, Adj. Mean (Wistar rats; 3 mg/kg PO): -7.8 min
- REM inhibition, Adj. Mean (Wistar rats; 3 mg/kg PO): 7.0 min
- Cumulative NREM sleep, Adj. Mean (Wistar rats; 3 mg/kg PO): 39.5 min
- Cumulative Total sleep, Adj. Mean (Wistar rats; 3 mg/kg PO): 42.3 min
- Locomotor Activity Intensity, Adj. Mean (Wistar rats; 3 mg/kg PO): −1.49 LMA counts per minute of EEG-defined wakefulness
- Average Sleep Bout, Adj. Mean (Wistar rats; 3 mg/kg PO): 1.8 n-fold
- Longest Sleep Bout, Adj. Mean (Wistar rats; 3 mg/kg PO): 2.7 n-fold
- Rebound Insomnia, Adj. Mean (Wistar rats; 10 mg/kg PO): 3.1 min
- REM inhibition, Adj. Mean (Wistar rats; 10 mg/kg PO): 2.9 min
- Cumulative NREM sleep, Adj. Mean (Wistar rats; 10 mg/kg PO): 51.8 min
- Cumulative Total sleep, Adj. Mean (Wistar rats; 10 mg/kg PO): 52.8 min
- Locomotor Activity Intensity, Adj. Mean (Wistar rats; 10 mg/kg PO): −0.11 LMA counts per minute of EEG-defined wakefulness
- Average Sleep Bout, Adj. Mean (Wistar rats; 10 mg/kg PO): 2.3 n-fold
- Longest Sleep Bout, Adj. Mean (Wistar rats; 10 mg/kg PO): 3.1 n-fold
- Estimated efficacy dose (mg/kg), NREM accumulation = 30 min (Wistar rats; [1]): 1.2 mg/kg
- Estimated efficacy dose (mg/kg), average sleep bout (1.5-fold increase) (Wistar rats; [1]): 0.77 mg/kg
- Estimated efficacy dose (mg/kg), longest sleep bout (1.75-fold increase) (Wistar rats; [1]): 0.21 mg/kg
- Estimated efficacy dose (mg/kg), total sleep accumulation = 25 min (Wistar rats; [1]): 0.58 mg/kg
- Ki (5-HT7): > 3.97 µM
